According to PubChem BioAssay AID330 (DTP/NCI, 2004):
Several values for one entry are separate records, joined by “and”; a condition that tells them apart may be missing. Equal values may be shown once. Toxic doses and inconclusive results are not listed. How the source made its calls: active means survival T/C of 150% or more; inactive means T/C below 125% in these data.

Tested on: P388 leukemia ip, CD2F1 mice, survival T/C
Assay: NCI In Vivo Anticancer Drug Screen. Data for tumor model P388 Leukemia (intraperitoneal) in CD2F1 (CDF1) mice
Details: endpoint: median survival time, higher = longer survival
Procedure, shortened: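 Mice carrying the transplanted tumor received test compound or vehicle. Survival was recorded in each group, and the value is the treated-group measurement divided by that of the vehicle-treated control group.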

[1] = dose: 60.0 mg/kg/injection, schedule: Q01DX005 (ip), vehicle: Klucel (hydroxypropylcellulose) (HPC)
[2] = dose: 120.0 mg/kg/injection, schedule: Q01DX005 (ip), vehicle: Klucel (hydroxypropylcellulose) (HPC)
[3] = dose: 240.0 mg/kg/injection, schedule: Q01DX005 (ip), vehicle: Klucel (hydroxypropylcellulose) (HPC)
[4] = dose: 60.0 mg/kg/injection, schedule: Q01DX005 (ip), vehicle: saline with Tween-80
[5] = dose: 120.0 mg/kg/injection, schedule: Q01DX005 (ip), vehicle: saline with Tween-80
[6] = dose: 240.0 mg/kg/injection, schedule: Q01DX005 (ip), vehicle: saline with Tween-80
[7] = dose: 50.0 mg/kg/injection, schedule: Q01DX009 (ip), vehicle: Klucel (hydroxypropylcellulose) (HPC)
[8] = dose: 50.0 mg/kg/injection, schedule: Q01DX005 (ip), vehicle: Klucel (hydroxypropylcellulose) (HPC)
[9] = dose: 100.0 mg/kg/injection, schedule: Q01DX005 (ip), vehicle: Klucel (hydroxypropylcellulose) (HPC)
[10] = dose: 200.0 mg/kg/injection, schedule: Q01DX005 (ip), vehicle: Klucel (hydroxypropylcellulose) (HPC)
[11] = dose: 50.0 mg/kg/injection, schedule: Q01DX005 (ip), vehicle: saline with Tween-80
[12] = dose: 100.0 mg/kg/injection, schedule: Q01DX005 (ip), vehicle: saline with Tween-80

Measured: T/C

O=C1C2(CCCC13N=NCC3c1ccccc1)N=NCC2c1ccccc1 (stereo not drawn)
inactive: [1] 93 % of control | [2] 88 % of control | [3] 93 % of control

COC(=O)Nn1c(C)c(C(=O)Nc2ccc(OC)cc2)c(C(=O)OC)c1C
inactive: [4] 97 % of control | [5] 100 % of control | [6] 97 % of control

O=C(CI)Nc1cccc(C(=O)O)c1O
inactive: dose: 12.5 mg/kg/injection, schedule: Q01DX009 (ip), vehicle: Klucel (hydroxypropylcellulose) (HPC) 101 % of control | dose: 25.0 mg/kg/injection, schedule: Q01DX009 (ip), vehicle: Klucel (hydroxypropylcellulose) (HPC) 113 % of control | [7] 99 % of control

CNC(=O)O[C@H]1C(=O)O[C@@H]2C[C@H]3C(C)=C(O)C(=O)C[C@]3(C)[C@H]3[C@@H](O)[C@H](O)[C@@]4(C(=O)OC)OC[C@]32[C@@H]14
inactive: dose: 1.0 mg/kg/injection, schedule: Q01DX005 (ip), vehicle: Klucel (hydroxypropylcellulose) (HPC) 105 % of control | dose: 2.0 mg/kg/injection, schedule: Q01DX005 (ip), vehicle: Klucel (hydroxypropylcellulose) (HPC) 105 % of control | dose: 4.0 mg/kg/injection, schedule: Q01DX005 (ip), vehicle: Klucel (hydroxypropylcellulose) (HPC) 102 % of control and 108 % of control | dose: 8.0 mg/kg/injection, schedule: Q01DX005 (ip), vehicle: Klucel (hydroxypropylcellulose) (HPC) 102 % of control | dose: 16.0 mg/kg/injection, schedule: Q01DX005 (ip), vehicle: Klucel (hydroxypropylcellulose) (HPC) 101 % of control | dose: 125.0 micrograms/kg/injection, schedule: Q01DX005 (ip), vehicle: Klucel (hydroxypropylcellulose) (HPC) 103 % of control | dose: 250.0 micrograms/kg/injection, schedule: Q01DX005 (ip), vehicle: Klucel (hydroxypropylcellulose) (HPC) 95 % of control | dose: 500.0 micrograms/kg/injection, schedule: Q01DX005 (ip), vehicle: Klucel (hydroxypropylcellulose) (HPC) 95 % of control | dose: 1000.0 micrograms/kg/injection, schedule: Q01DX005 (ip), vehicle: Klucel (hydroxypropylcellulose) (HPC) 99 % of control

C#C/C=C/CC1O[C@H](/C=C/C)C/C=C\CC1Cl (stereo partly drawn)
inactive: dose: 7.8 mg/kg/injection, schedule: Q01DX005 (ip), vehicle: Klucel (hydroxypropylcellulose) (HPC) 94 % of control | dose: 15.62 mg/kg/injection, schedule: Q01DX005 (ip), vehicle: Klucel (hydroxypropylcellulose) (HPC) 99 % of control | dose: 31.25 mg/kg/injection, schedule: Q01DX005 (ip), vehicle: Klucel (hydroxypropylcellulose) (HPC) 96 % of control | dose: 62.5 mg/kg/injection, schedule: Q01DX005 (ip), vehicle: Klucel (hydroxypropylcellulose) (HPC) 88 % of control

COc1ccc(C2SCC(=O)N2c2nncs2)cc1F (stereo not drawn)
inactive: [1] 92 % of control | [2] 96 % of control | [3] 92 % of control

c1ccc2c(c1)Cc1ccccc1N2CCN1CCCCC1
inactive: dose: 50.0 mg/kg/injection, schedule: Q01DX005 (ip), vehicle: saline 101 % of control | dose: 100.0 mg/kg/injection, schedule: Q01DX005 (ip), vehicle: saline 104 % of control

COc1ccc(C2CCCCCC2)c(OC)c1OC
inactive: [7] 98 % of control and 108 % of control | dose: 100.0 mg/kg/injection, schedule: Q01DX009 (ip), vehicle: Klucel (hydroxypropylcellulose) (HPC) 113 % of control | dose: 200.0 mg/kg/injection, schedule: Q01DX009 (ip), vehicle: Klucel (hydroxypropylcellulose) (HPC) 103 % of control and 105 % of control

CCCCN(CCCC)C(=N)c1ccc(OC)c(OC)c1
inactive: dose: 6.25 mg/kg/injection, schedule: Q01DX005 (ip), vehicle: saline 98 % of control | dose: 12.5 mg/kg/injection, schedule: Q01DX005 (ip), vehicle: saline 100 % of control | dose: 25.0 mg/kg/injection, schedule: Q01DX005 (ip), vehicle: saline 100 % of control

OCC(O)C(O)C(O)c1nn(-c2ccccc2)c2nc3ccc(Cl)cc3nc12 (stereo not drawn)
inactive: [8] 90 % of control | [9] 90 % of control | [10] 89 % of control

COc1cc(/C=C/C(=O)NCCCCN=[N+]=[N-])ccc1OCc1ccccc1
inactive: [4] 93 % of control | [5] 96 % of control | [6] 97 % of control

O=c1c2ccccc2sc2c([N+](=O)[O-])ccc(NCC3CCCN4CCCCC34)c12 (stereo not drawn)
inactive: dose: 38.5 mg/kg/injection, schedule: Q01DX005 (ip), vehicle: saline with Tween-80 96 % of control | dose: 77.0 mg/kg/injection, schedule: Q01DX005 (ip), vehicle: saline with Tween-80 96 % of control | dose: 154.0 mg/kg/injection, schedule: Q01DX005 (ip), vehicle: saline with Tween-80 118 % of control

CCOC(=O)n1c(=O)oc2c(Br)cc(Br)cc21
inactive: dose: 50.0 mg/kg/injection, schedule: Q04DX002 (ip), vehicle: Klucel (hydroxypropylcellulose) (HPC) 96 % of control | dose: 100.0 mg/kg/injection, schedule: Q04DX002 (ip), vehicle: Klucel (hydroxypropylcellulose) (HPC) 99 % of control | dose: 200.0 mg/kg/injection, schedule: Q04DX002 (ip), vehicle: Klucel (hydroxypropylcellulose) (HPC) 93 % of control

O=C(O)C(=O)c1ccccc1
inactive: dose: 50.0 mg/kg/injection, schedule: Q04DX003 (ip), vehicle: saline 100 % of control | dose: 100.0 mg/kg/injection, schedule: Q04DX003 (ip), vehicle: saline 105 % of control | dose: 200.0 mg/kg/injection, schedule: Q04DX003 (ip), vehicle: saline 100 % of control

CCCCCCCNc1nn[nH]n1
inactive: [8] 100 % of control | [9] 104 % of control | [10] 98 % of control

C/C=C(/CN/C(=C\[N+](=O)[O-])c1ccccc1)c1ccccc1
inactive: [4] 102 % of control | [5] 100 % of control | [6] 95 % of control

CCOC1OCN(C(C)(C)C)CC1(C)C (stereo not drawn)
inactive: dose: 25.0 mg/kg/injection, schedule: Q01DX009 (ip), vehicle: saline with Tween-80 104 % of control | dose: 50.0 mg/kg/injection, schedule: Q01DX009 (ip), vehicle: saline with Tween-80 120 % of control

CN(C)CCN1C(=O)CN=C(c2ccccc2Cl)c2cc(Cl)ccc21
inactive: dose: 60.0 mg/kg/injection, schedule: Q01DX005 (ip), vehicle: saline 102 % of control | dose: 120.0 mg/kg/injection, schedule: Q01DX005 (ip), vehicle: saline 99 % of control | dose: 240.0 mg/kg/injection, schedule: Q01DX005 (ip), vehicle: saline 95 % of control

Cc1cc2nc3c(nc2cc1C)CCCCCC3
inactive: dose: 85.5 mg/kg/injection, schedule: Q01DX001 (ip), vehicle: Klucel (hydroxypropylcellulose) (HPC) 92 % of control | dose: 171.0 mg/kg/injection, schedule: Q01DX001 (ip), vehicle: Klucel (hydroxypropylcellulose) (HPC) 90 % of control | dose: 342.0 mg/kg/injection, schedule: Q01DX001 (ip), vehicle: Klucel (hydroxypropylcellulose) (HPC) 90 % of control

COc1ccc2nc(NC(=O)Nc3c(Cl)cccc3Cl)sc2c1
inactive: [4] 95 % of control | [5] 101 % of control | [6] 88 % of control

CC(=O)OC1CC2C(=[N+]=[N-])C(=O)C1(C)C2(C)C (stereo not drawn)
inactive: [11] 108 % of control | [12] 107 % of control | dose: 200.0 mg/kg/injection, schedule: Q01DX005 (ip), vehicle: saline with Tween-80 108 % of control

CCC(C)C(NC(=O)C(Cc1cnc[nH]1)N(C(=O)OCc1ccccc1)C(=O)OCc1ccccc1)C(=O)OCc1ccccc1 (stereo not drawn)
inactive: [11] 100 % of control | [12] 93 % of control

COC1=CC(=O)C=C(OC)C1=O
inactive: dose: 0.5 mg/kg/injection, schedule: Q01DX009 (ip), vehicle: saline with Tween-80 109 % of control | dose: 1.0 mg/kg/injection, schedule: Q01DX009 (ip), vehicle: saline with Tween-80 113 % of control | dose: 2.0 mg/kg/injection, schedule: Q01DX009 (ip), vehicle: saline with Tween-80 119 % of control | dose: 4.0 mg/kg/injection, schedule: Q01DX009 (ip), vehicle: saline with Tween-80 111 % of control

Clc1ccc(CN2COc3c(ccc4cccnc34)C2)cc1
inactive: dose: 50.0 mg/kg/injection, schedule: Q04DX003 (ip), vehicle: Klucel (hydroxypropylcellulose) (HPC) 101 % of control and 115 % of control | dose: 100.0 mg/kg/injection, schedule: Q04DX003 (ip), vehicle: Klucel (hydroxypropylcellulose) (HPC) 101 % of control and 105 % of control and 97 % of control | dose: 200.0 mg/kg/injection, schedule: Q04DX003 (ip), vehicle: Klucel (hydroxypropylcellulose) (HPC) 100 % of control and 103 % of control and 123 % of control | dose: 400.0 mg/kg/injection, schedule: Q04DX003 (ip), vehicle: Klucel (hydroxypropylcellulose) (HPC) 93 % of control
